Data taken from patent publication US20200016155A1, “COMPOSITIONS AND TREATMENT OF HEART DEFICIENCY IN NON-HUMAN ANIMALS” (CEVA SANTE ANIMALE, priority 2007, published 2020).
Where two headings read alike, the source gives them in different places.

What was measured:
[1] = tested on: aldosterone effect on log([Na+]urinary×10/[K+]urinary); test: Anti-aldosterone activity model (Hofman): urinary log([Na+]x10/[K+]) in dogs given aldosterone; type: in vivo, dog; details: for inhibition of the effect of aldosterone on log ([Na+]urinary×10/[K+]urinary): first 6 hours and 12 hours after dosage
Description: The model for assessing the anti-aldosterone activity as described by Hofman L. M et al. (1975, The Journal of Pharmacology and Experimental Therapeutics. 194, 450-456) was used. […] A preliminary study was performed in order to determining the ED80 value for the natriuretic effect of aldosterone on its own. […] An elimination period of at least 48 hours was left between each administration.
The dogs described above were allocated to different treatment groups (A, B, C, D, and E) and a rest period was left between treatments.
A negative control group A only received the pharmaceutical excipient. The positive control group B only received 3 μg/kg of aldosterone. […] 200 g food was then given immediately after treatment.
The tubes were centrifuged rapidly at 1500 rpm for 10 minutes (at a temperature of +4° C.±2° C.), and the plasma was distributed in two propylene tubes (1.2 mL). The samples were frozen and kept in the dark at approx. −80° C. On the day of the fest, the bladders of the animals were emptied by catherisation, then 6 and 24 hours after treatment. Also, the urine was collected during the time periods ranging from T0-T6h; T6h-T12h and T12h-T24h.
The sodium and potassium contents in urines were determined using […]. […] According to this method 500 μL plasma were mixed with ethyl acetate (80/20,V/V) as solvents. […] The compounds and the internal standard (i.e. methyl-testosterone) were separated on a Kromasil C18 column. The quantification levels were 10 μg/L for all compounds within +/−14% variation.
E0, Elog ({Na+)urinary×10/[K+}) max dose and ED50 were obtained by nonlinear regression, and n is the Hill coefficient describing the dose effect relation.

[2] = Pharmacokinetic study with 22-14C spironolactone, rat; type: in vivo; details: rats, after 4 hour oral administration
[3] = Pharmacokinetic study with 22-14C spironolactone, dog; type: in vivo; details: dogs, after 4 hour oral administration
[4] = Pharmacokinetic study with 22-14C spironolactone, monkey; type: in vivo; details: monkeys, after 4 hour oral administration
[5] = tested on: dogs affected by heart failure; test: Multicentre randomised double-blind placebo-controlled clinical studies in dogs affected by heart failure; type: in vivo, dog; details: group of dogs on spironolactone
Description: Multicentre, randomised, double-blind placebo-controlled clinical studies were conducted.
For gauging the effects of the treatment, both groups were examined five times, i.e., on the first day of treatment (D1), then on the 84th day (D84), […], 252nd day (D252) and 336th day (D336). This examination consisted of a clinical examination of the dogs, urine and blood analyses, and a radiograph. Moreover, an echocardiograph was taken on days D1, D168 and D336.
Also, the effects of the treatment were assessed on the symptoms such as cough and mobility, as well as on the prevention of symptoms such as dyspnoea, pulmonary edema, and tolerance to effort.

[6] = Plasmatic potassium (kaliemia) measurements during the clinical studies; type: in vivo, dog
Description: The plasmatic potassium concentrations (mmol/L) were measured during the treatments. […] Only sporadic case of low or moderate hyperkaliemia could be observed and these events were transient. Indeed, these hyperkaliemia events could only be observed a couple of times during examinations, and some of them were present on day D1, before the beginning of the treatment.

[7] = tested on: patients affected by severe heart failure; details: 25 mg spironolactone with CEI, ansa diuretics, sometimes digoxin; 822 patients; cited from earlier work
human patient = details: cited from earlier work

C[C@]12CCC(=O)C=C1CC[C@@H]1[C@@H]2[C@@H](O)C[C@]2(C=O)[C@@H](C(=O)CO)CC[C@@H]12 [aldosterone]
E0 (control group) ([1]; basic effect after aldosterone on its own (positive control), 0 to 6 hours): 0.527

CC(=O)S[C@@H]1CC2=CC(=O)CC[C@]2(C)[C@H]2CC[C@@]3(C)[C@@H](CC[C@@]34CCC(=O)O4)[C@H]12 [spironolactone, 7α-acetylthio-3-oxo-17α-pregn-4-ene-21,17-carbolactone]
plasma radioactivity percentage [2]: 66%
plasma radioactivity percentage [3]: 76%
plasma radioactivity percentage [4]: 33%
natriuretic responses ([1]; 0.8 mg/kg): no effect on certain dogs
natriuretic responses ([1]; 2 mg/kg): completely reversed
inhibition of the effect of aldosterone on log ([Na+]urinary×10/[K+]urinary) ([1]; 2 mg/kg): complete reversal of the effect
natriuretic responses ([1]; 8 mg/kg): other increases in the elimination of Na were observed
inhibition of the effect of aldosterone on log ([Na+]urinary×10/[K+]urinary) ([1]; 8 mg/kg): complete reversal of the effect
E(0.8 mg/kg)−E0 ([1]; dose 0.8 mg/kg): 0.3233
restoring of the effect ([1]; dose 0.8 mg/kg): 57%
E(2 mg/kg) ([1]; dose approx. 2 mg/kg): 0.4933
restoring of the effect ([1]; dose approx. 2 mg/kg): 88%
log ([Na+]urinary×10/[K+]urinary), average ([1]; urine collected 0 to 6 hours after administration of spironolactone, from 0.70±0.22): 1.14±0.18
clinical symptoms [5]: improved symptoms such as cough and mobility
variation in kaliemia ([6]; 2 mg/kg/day, dogs): did not cause any variation in kaliemia or only low transient variations in kaliemia
Low and transient hyperkaliemia (5.9 to 6.4 mmol/L), cases ([6]; 2-month clinical study (4 analyses)): 3
Low and transient hyperkaliemia (5.9 to 6.4 mmol/L), cases ([6]; 3-month clinical study (6 analyses)): 5
Low and transient hyperkaliemia (5.9 to 6.4 mmol/L), cases ([6]; 12-month clinical study (5 analyses)): 3
progression of average plasmatic potassium (kaliemia) ([6]; FIG. 9, spironolactone 2 mg/kg/day + CEI): stable kaliemia
dead in the spironolactone group, percentage [7]: 35%
number of dead in the spironolactone group [7]: 284
Therapeutic effect in human (human patient; 12.5 mg/day): Significant reduction in morbidity/
Therapeutic effect in human (human patient; 25 mg/day): Significant reduction in morbidity/
Therapeutic effect in human (human patient; 50 mg/day): Significant reduction in morbidity/
Therapeutic effect in human (human patient; 75 mg/day): Significant reduction in morbidity/
